Measurements taken from patent US10640534B2 (Agios Pharmaceuticals, Inc., priority 2012, dated 2020).

Test system: U87MG cells
Experiment: Cellular assay, inhibition of 2-HG production in U87MG cells
Format: cell-based
Details: Homo sapiens, U-87 MG, 48 h
In short: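 HT1080 or U87MG cells (U87MG kept with 500 ug/mL G418) seeded at 5000 cells/well and treated with compound at 0.2% final DMSO. Incubated 48 h at 37 °C. 2-HG inhibition determined by LC-MS. Viability read by CellTiter-Glo luminescence at 72 h post-dose.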

| IC50 [nM] | Structure (SMILES) |
| --- | --- |
| < 100 | O=C(NC1CC(F)(F)C1)[C@H](c1ccccc1Cl)N(C(=O)[C@@H]1CCC(=O)N1c1cscn1)c1cccc(F)c1 [Compound 43, (S)—N—((S)-1-(2-Chlorophenyl)-2-(3,3-difluorocyclobutylamino)-2-oxoethyl)-N-(3-fluorophenyl)-5-oxo-1-(thiazol-4-yl)pyrrolidine-2-carboxamide] |
| < 100 | N#Cc1ccnc(N2C(=O)OC[C@H]2C(=O)N(c2cccc(F)c2)[C@H](C(=O)NC2CC(F)(F)C2)c2ccccc2Cl)c1 [Compound 77, (S)—N—((S)-1-(2-Chlorophenyl)-2-(3,3-difluorocyclobutylamino)-2-oxoethyl)-3-(4-cyanopyridin-2-yl)-N-(3-fluorophenyl)-2-oxooxazolidine-4-carboxamide] |
| < 100 | N#Cc1ccnc(N2C(=O)[C@@H](O)C[C@H]2C(=O)N(c2cc(F)cc(F)c2)[C@H](C(=O)NC2CC(F)(F)C2)c2ccccc2Cl)c1 [Compound 171, (2S,4S)—N—((S)-1-(2-Chlorophenyl)-2-((3,3-difluorocyclobutyl)amino)-2-oxoethyl)-1-(4-cyano-pyridin-2-yl)-N-(3,5-difluorophenyl)-4-hydroxy-5-oxopyrrolidine-2-carboxamide] |
| < 100 | N#Cc1cc(C#N)cc(N(C(=O)[C@@H]2CCC(=O)N2c2cc(C#N)ccn2)[C@H](C(=O)NC2CC(F)(F)C2)c2ccccc2Cl)c1 [Compound 153, (S)—N—((S)-1-(2-Chlorophenyl)-2-((3,3-difluorocyclobutyl)amino)-2-oxoethyl)-1-(4-cyanopyridin-2-yl)-N-(3,5-dicyanophenyl)-5-oxopyrrolidine-2-carboxamide] |
| 100 to 500 | N#Cc1ccnc(N2C(=O)[C@@H](O)C[C@H]2C(=O)N(c2cccc(F)c2)[C@H](C(=O)NC2CC(F)(F)C2)c2ccccc2Cl)n1 [Compound 119, (2S,4S)—N—((S)-1-(2-Chlorophenyl)-2-(3,3-difluorocyclobutylamino)-2-oxoethyl)-1-(4-cyanopyrimidin-2-yl)-N-(3-fluorophenyl)-4-hydroxy-5-oxopyrrolidine-2-carboxamide] |
| < 100 | CC(=O)N1CC(=O)N(c2cc(C#N)ccn2)[C@H](C(=O)N(c2cccc(F)c2)[C@H](C(=O)NC2CC(F)(F)C2)c2ccccc2Cl)C1 [Compound 92, (S)-4-Acetyl-N—((S)-1-(2-chlorophenyl)-2-(3,3-difluorocyclobutylamino)-2-oxoethyl)-1-(4-cyanopyridin-2-yl)-N-(3-fluorophenyl)-6-oxopiperazine-2-carboxamide] |
| < 100 | CS(=O)(=O)Nc1cccc(N(C(=O)[C@@H]2CCC(=O)N2c2cc(C#N)ccn2)[C@H](C(=O)NC2CC(F)(F)C2)c2ccccc2Cl)c1 [Compound 159, (S)—N—((S)-1-(2-Chlorophenyl)-2-(3,3-difluorocyclobutylamino)-2-oxoethyl)-1-(4-cyanopyridin-2-yl)-N-(3-(methylsulfonamido)phenyl)-5-oxopyrrolidine-2-carboxamide] |
| < 100 | N#Cc1ccnc(N2C(=O)[C@H](O)C[C@H]2C(=O)N(c2cc(F)cc(F)c2)[C@H](C(=O)NC2CCC(F)(F)CC2)c2ccccc2Cl)c1 [Compound 125, (2S,4R)—N—((S)-1-(2-Chlorophenyl)-2-(4,4-difluorocyclohexylamino)-2-oxoethyl)-1-(4-cyanopyridin-2-yl)-N-(3,5-difluorophenyl)-4-hydroxy-5-oxopyrrolidine-2-carboxamide] |
| < 100 | N#Cc1ccnc(N2C(=O)CCC[C@H]2C(=O)N(c2cccc(F)c2)[C@H](C(=O)NC2CC(F)(F)C2)c2ccccc2Cl)c1 [Compound 55, (S)—N—((S)-1-(2-Chlorophenyl)-2-(3,3-difluorocyclobutylamino)-2-oxoethyl)-1-(4-cyanopyridin-2-yl)-N-(3-fluorophenyl)-6-oxopiperidine-2-carboxamide] |
| < 100 | N#Cc1ccnc(N2C(=O)[C@H](O)C[C@H]2C(=O)N(c2cc(F)cc(F)c2)[C@H](C(=O)NC2CCC(F)(F)CC2)c2ccccc2Cl)n1 [Compound 127, (2S,4R)—N—((S)-1-(2-Chlorophenyl)-2-(4,4-difluorocyclohexylamino)-2-oxoethyl)-1-(4-cyanopyrimidin-2-yl)-N-(3,5-difluorophenyl)-4-hydroxy-5-oxopyrrolidine-2-carboxamide] |

Second part, the molecule before the results:

| Structure (SMILES) | IC50 [nM] |
| --- | --- |
| N#Cc1ccnc(N2C(=O)CC[C@H]2C(=O)N(c2cc(F)cc(F)c2)[C@H](C(=O)NC2CCC(F)(F)CC2)c2ccccc2Cl)n1 [Compound 87, (S)—N—((S)-1-(2-Chlorophenyl)-2-((4,4-difluorocyclohexyl)amino)-2-oxoethyl)-1-(4-cyanopyrimidin-2-yl)-N-(3,5-difluorophenyl)-5-oxopyrrolidine-2-carboxamide] | < 100 |
| N#Cc1ccnc(N2C(=O)CC[C@H]2C(=O)N(c2cncc(F)c2)[C@H](C(=O)NC2CC(F)(F)C2)c2ccccc2)c1 [Compound 147, (S)-1-(4-Cyanopyridin-2-yl)-N—((S)-2-((3,3-difluorocyclobutyl)amino)-2-oxo-1-phenylethyl)-N-(5-fluoropyridin-3-yl)-5-oxopyrrolidine-2-carboxamide] | < 100 |
| N#Cc1ccnc(N2C(=O)CC[C@H]2C(=O)N(c2cccc(OC(F)(F)F)c2)C(C(=O)NC2CC(F)(F)C2)c2ccccc2Cl)n1 (stereo partly drawn) [Compound 180, (2S)—N-(1-(2-Chlorophenyl)-2-((3,3-difluorocyclobutyl)amino)-2-oxoethyl)-1-(4-cyanopyrimidin-2-yl)-5-oxo-N-(3-(trifluoromethoxy)phenyl)pyrrolidine-2-carboxamide] | < 100 |
| N#Cc1ccnc(N2C(=O)OC[C@H]2C(=O)N(c2cncc(F)c2)[C@H](C(=O)NC2CCC(F)(F)CC2)c2ccccc2Cl)c1 [Compound 132, (S)—N—((S)-1-(2-Chlorophenyl)-2-((4,4-difluorocyclohexyl)amino)-2-oxoethyl)-3-(4-cyanopyridin-2-yl)-N-(5-fluoropyridin-3-yl)-2-oxooxazolidine-4-carboxamide] | < 100 |
| O=C(NC1CCC(F)(F)CC1)[C@H](c1ccccc1Cl)N(C(=O)[C@@H]1COC(=O)N1c1ncccn1)c1cccc(F)c1 [Compound 76, (S)—N—((S)-1-(2-Chlorophenyl)-2-((4,4-difluorocyclohexyl)amino)-2-oxoethyl)-N-(3-fluoro-phenyl)-2-oxo-3-(pyrimidin-2-yl)oxazolidine-4-carboxamide] | < 100 |
| N#Cc1ccnc(N2C(=O)OCC[C@H]2C(=O)N(c2cccc(F)c2)C(C(=O)NC2CC(F)(F)C2)c2ccccc2Cl)c1 (stereo partly drawn) [Compound 90, (4S)—N-(1-(2-Chlorophenyl)-2-(3,3-difluorocyclobutylamino)-2-oxoethyl)-3-(4-cyanopyridin-2-yl)-N-(3-fluorophenyl)-2-oxo-1,3-oxazinane-4-carboxamide] | < 100 |
| CN1CC(=O)N(c2cc(C#N)ccn2)[C@H](C(=O)N(c2cc(F)cc(F)c2)[C@H](C(=O)NC2CC(F)(F)C2)c2ccccc2Cl)C1 [Compound 101, (S)—N—((S)-1-(2-chlorophenyl)-2-((3,3-difluorocyclobutyl)amino)-2-oxoethyl)-1-(4-cyanopyridin-2-yl)-N-(3,5-difluorophenyl)-4-methyl-6-oxopiperazine-2-carboxamide] | < 100 |
| N#Cc1ccnc(N2C(=O)CC[C@H]2C(=O)N(c2cccc(OC(F)F)c2)[C@H](C(=O)NC2CC(F)(F)C2)c2ccccc2Cl)c1 (single isomer, unassigned) [Compound 181] | < 100 |
| N#Cc1ccnc(N2C(=O)[C@H](O)C[C@H]2C(=O)N(c2cc(F)cc(F)c2)[C@H](C(=O)NC2CC(F)(F)C2)c2ccccc2Cl)c1 [Compound 115, (2S,4R)—N—((S)-1-(2-Chlorophenyl)-2-((3,3-difluorocyclobutyl)amino)-2-oxoethyl)-1-(4-cyanopyridin-2-yl)-N-(3,5-difluorophenyl)-4-hydroxy-5-oxopyrrolidine-2-carboxamide] | < 100 |
| CC(C)(O)c1cccc(N(C(=O)[C@@H]2CCC(=O)N2c2cc(C#N)ccn2)[C@H](C(=O)NC2CC(F)(F)C2)c2ccccc2Cl)c1 [Compound 179, (S)—N—((S)-1-(2C)-2-((3,3-difluorocyclobutyl)amino)-2-oxoethyl)-1-(4-cyanopyridin-2-yl)-N-(3-(2-hydroxypropan-2-yl)phenyl)-5-oxopyrrolidine-2-carboxamide] | < 100 |
| N#Cc1ccnc(N2C(=O)OCC[C@H]2C(=O)N(c2cc(F)cc(F)c2)[C@H](C(=O)NC2CCC(F)(F)CC2)c2ccccc2Cl)c1 [Compound 139, (S)—N—((S)-1-(2-Chlorophenyl)-2-((4,4-difluorocyclohexyl)amino)-2-oxoethyl)-3-(4-cyanopyridin-2-yl)-N-(3,5-difluorophenyl)-2-oxo-1,3-oxazinane-4-carboxamide] | < 100 |
| N#Cc1ccnc(N2C(=O)CC[C@H]2C(=O)N(c2cccc(F)c2)[C@H](C(=O)NC2CC(F)(F)C2)c2ccccc2Cl)c1 [Compound 37] | < 100 |
| O=C(NC1CC(F)(F)C1)C(c1ccccc1Cl)N(C(=O)[C@@H]1CCC(=O)N1c1ccccn1)c1cccc(F)c1 (stereo partly shown) [Compound 5] | 100 to 500 |
| CS(=O)(=O)c1cccc(N(C(=O)[C@@H]2CCC(=O)N2c2nccc(C#N)n2)[C@H](C(=O)NC2CCC(F)(F)CC2)c2ccccc2Cl)c1 [Compound 103, (S)—N—((S)-1-(2C)-2-((4,4-difluorocyclohexyl)amino)-2-oxoethyl)-1-(4-cyanopyrimidin-2-yl)-N-(3-(methylsulfonyl)phenyl)-5-oxopyrrolidine-2-carboxamide] | 100 to 500 |
| N#Cc1ccnc(N2C(=O)[C@@H](O)C[C@H]2C(=O)N(c2cccc(F)c2)[C@H](C(=O)NC2CCC(F)(F)CC2)c2ccccc2Cl)c1 [Compound 172, (2S,4S)—N—((S)-1-(2-Chlorophenyl)-2-((4,4-difluorocyclohexyl)amino)-2-oxoethyl)-1-(4-cyano-pyridin-2-yl)-N-(3-fluorophenyl)-4-hydroxy-5-oxopyrrolidine-2-carboxamide] | < 100 |
